This is an account of results in publication PMC10895676, “Antiviral Activity of Lipophilic Nucleoside Tetraphosphate Compounds” (Journal of Medicinal Chemistry, 2024).

The structures appear in SMILES notation. A value given as a limit tells only on which side of the number the result lay.

This data set can be described thus: Hydrolysis in citrate-stabilized human plasma. Conditions: 37 °C, read-out: t1/2 in citrate-stabilized human plasma (converted). It is filed as in vitro ADME. As to the method: Finally, the supernatant was divided into aliquots and frozen at −80 °C.
Two different samples, including 10 μL of water and 10 μL of 6.0 mM hydrolysis solution, were prepared in 2 mL Eppendorf vials. Next, 50 μL of human CEM cell extracts or 50 μL of human citrate plasma were added to the mixture, the reaction was started, and the mixture was incubated at 37 °C for different time periods. The reactions were stopped by the addition of 150 μL of MeOH. The resulting suspension was kept on ice for 5 min, followed by defrosting and centrifugation at 14,000 rpm (Heraeus, Biofuge Pico) for 22 min. The supernatants (80 or 60 μL) were directly injected into HPLC. The calculation of t1/2 was performed analogously to that for the chemical hydrolysis studies.

As to `CCCCCCCCCCCCCCCCCCP(=O)(OCCCC)OP(=O)(O)OP(=O)(O)OP(=O)(O)OC[C@@H]1C=C[C@H](n2cc(C)c(=O)[nH]c2=O)O1` (some centres unmarked) [5a, δ-(Alkyl-C4)-δ-C-(alkyl-C18)-d4T4P], the half-life at 0.86 mM is greater than 22 h.

Regarding `CCCCCCCCCCCCCCCCCCP(=O)(O)OP(=O)(O)OP(=O)(O)OP(=O)(O)OC[C@@H]1C=C[C@H](n2cc(C)c(=O)[nH]c2=O)O1` [compound 24, δ-C-(Alkyl-C18)-d4T4P], the half-life at 0.86 mM is greater than 22 h.
